Among the data in a melting point compilation (Tetko et al.; mined from patent text by program, amines drawn as free bases though some values may be those of a salt) are melting point values, retold here.

On to `Cn1c(=O)c2nc(-c3ccc(/C=C/C(=O)O)cc3)[nH]c2n(Cc2ccc(C#N)cc2)c1=O`, for which the melting point (commonly the temperature, or range, at which the solid turns liquid) is more than 350 °C.

As for `O=Cc1ccc2c(c1)Sc1cc(C=O)ccc1N2c1ccccc1`, the melting point was in the range of 194 to 198 °C.

`N#CCCOc1ccc2c(c1)CCO2` displayed a melting point of less than 50 °C.

Take `CCS(=O)(=O)Nc1cc(-n2c(=O)cc(C(F)(F)F)n(N)c2=O)c(F)cc1C#N`: the melting point is 190 °C.

The compound `N#Cc1ccc(OCCCCCI)cc1` displayed a melting point of 51 to 54 °C.

For `CC(=O)N1CC(CCN2CC=C(c3ccc(Cl)cc3)CC2)c2ccccc21` (centres undefined), the melting point fell in the range of 116 to 118 °C.

The compound `COCOc1ccc(C(C)=O)c(O)c1` returned a melting point of 38 to 39 °C.

With `CCc1n[nH]c2cc(-c3ccc4nnn(Cc5ccc6ncccc6c5)c4n3)ccc12`, the melting point lay in the range of 211 to 213 °C.

`Cc1ccc2c(c1)C1CN(CCCC(=O)c3ccc(F)cc3)CCC1N2` (centres undefined) registered a melting point of 154 to 158 °C.

`CCOC(=O)COc1c(OC2CCCCO2)cccc1[N+](=O)[O-]` (centres undefined) yielded a melting point of 49 to 50 °C.

`CCc1nc(/C=C/c2cn(-c3ccccc3)nc2OCc2ccc(OCc3nc(/C=C/C(=O)O)oc3C)c(OC)c2)cs1` returned a melting point of 125 to 126 °C.

As for `O=[N+]([O-])c1cccnc1N1CCc2ccccc2CC1`, the melting point was 129 to 136 °C.

In turn, `COc1cc(Oc2cccc(OC(F)(F)F)c2)nc(C(=O)O)c1` had a melting point of 64 to 66 °C.

For the compound `COc1ccc(S(=O)(=O)N2C(=O)[C@@](c3ccccc3OC)(N3C[C@H](OC(N)=O)C[C@H]3C(=O)N(C)C)c3cc(Cl)ccc32)c(OC)c1`, the melting point fell in the range of 115 to 125 °C.

The compound `OCc1cc(F)c(CO)cc1F` had a melting point of 268 to 271 °C.

For the compound `CC(C)Cc1ccc([N+](=O)[O-])cc1C#N`, the melting point came to 73 °C.

In turn, `CCOC(=O)c1cn(C)c2nc3c(F)c(N4CCNC(c5ccccc5)C4)c(F)cc3cc2c1=O` (racemic) returned a melting point of 216 °C.

Compound `CCCCc1nn2c(c1Cc1ccc(C(=O)O)cc1)CCCC2` displayed a melting point of 148 to 150 °C.

`CNn1cc(C(=O)O)c(=O)c2cc3c(cc21)OCO3` yielded a melting point of more than 300 °C.

Consider `O=C1C(=O)N(CCCN2CCN(C3c4ccccc4CCc4ccccc43)CC2)c2ccccc21`, for which the melting point was 159 to 162 °C.

On to `CCCOc1ncc(N(C)C)cc1-c1nc2c(CCC)nn(C)c2c(=O)[nH]1`, for which the melting point came out at 162 °C.

Compound `O=c1[nH]c2[nH]c3ccc(Cl)cc3c2c2c(F)cccc12` displayed a melting point of more than 300 °C.

`CCOCCOc1ccc(C(=O)Nc2ccc3cc(CN4CCCC4)cnc3c2C)c(F)c1` returned a melting point of 132 °C.

Consider `O=Cc1cc2c(s1)-c1ccccc1OC2C1=CCCC=C1` (centres undefined), for which the melting point is 117 to 118 °C.

Turning to `CCCOc1cc2ccccc2c2c(=O)c(-c3ccoc3)cn(C)c12`, the melting point was in the range of 165 to 167 °C.

`NC1=Nc2ccc([N+](=O)[O-])cc2C(c2ccccc2Cl)=NC1` came in with a melting point of 222 to 224 °C.

On to `O=C(O)CCc1cnoc1-c1cc(Cl)cc(Cl)c1`, for which the melting point lay in the range of 143 to 144 °C.

For the compound `O=C(O)Cc1onc(O)c1Cl`, the melting point was 155 °C.

The compound `O=C(CBr)c1csc(-c2ccc([N+](=O)[O-])cc2)n1` gave a melting point of 186 to 187 °C.

With `CC(CO)(CO)NS(=O)(=O)c1cccc(C#Cc2cnn3c(C(F)F)cc(-c4ccc(C(F)(F)F)cc4)nc23)c1`, the melting point was 172 to 174 °C.

Take `CC(C)(C)OC(=O)C(N)c1nc(-c2ncn3c2C2CCN2C(=O)c2cc(F)ccc2-3)no1` (centres undefined): the melting point was in the range of 147 to 150 °C.

`CC(=O)c1cc(Cl)c(N)cc1F` registered a melting point of 97 to 98 °C.

Compound `Cc1c(CCl)ncn1S(=O)(=O)N(C)C` returned a melting point of 115 to 118 °C.

Turning to `CC(C)(C)C(O)(COc1ccc(Cl)cc1)c1cncnc1` (centres undefined), the melting point fell in the range of 172 to 174 °C.

In the case of `Cc1cc(C)c(N2CCCc3c2nn(C)c3Br)c(Cl)c1`, the melting point lay within 106 to 107 °C.

In turn, `CCOC(=O)CCNC(=O)c1oc2cc(-c3ccc(Cn4c(C)nc5ccccc54)cc3)ccc2c1C` displayed a melting point of 196 to 197 °C.

`CCCn1nc(C)c(C#N)c1N` registered a melting point of 104 to 105 °C.

`O=c1c2cc(Br)ccc2[nH]n1-c1ccccc1F` showed a melting point of 200 to 205 °C.

`N#CCc1c[nH]c2ccc(NC(=O)Nc3ccccc3)cc12` gave a melting point of 217 to 219 °C.

For the compound `CC(C)(CNC=O)c1ccc2nc(-c3c[nH]cn3)[nH]c2c1`, the melting point lay in the range of 240 to 246 °C.

The compound `CC(C)(C)c1nc2cc(N3CCNCC3)c([N+](=O)[O-])cc2s1` displayed a melting point of 144 to 146 °C.

`OC(Cc1ccc(Cl)cc1)(Cn1ccnc1)c1ccc2c(c1)Cc1cc(Cl)ccc1-2` (centres undefined) came in with a melting point of 218 °C.

`CC(O)Cn1c(COC(N)=O)nc(C(C)C)c1Sc1cc(Cl)cc(Cl)c1` (centres undefined) came in with a melting point of 82 °C.

Consider `CC(C)c1ccc(-c2nc(COc3ccc(OC(C)(C)C(=O)O)cc3)no2)cc1`, for which the melting point amounted to 103 °C.

The compound `O=C(CON=C(C(=O)O)c1csc(NC(=O)C(F)(F)F)n1)OC(c1ccccc1)c1ccccc1` showed a melting point of 178 to 180 °C.

In turn, `O=C1c2ccccc2C(=O)N1OC/C=C/Cc1ccccc1` came in with a melting point of 70 to 71 °C.

Regarding `O=C1CC(Cl)=C(Cl)c2nc3cc(Cl)ccc3c(NCc3ccccc3)c21`, the melting point is 141 to 143 °C.

Consider `C[C@H](NC(=O)OCC1c2ccccc2-c2ccccc21)C(=O)O`, for which the melting point lay in the range of 144 to 146 °C.

Turning to `O=C1c2ccccc2C(=O)c2c(NCCN3CCCCC3)ccc(NCCN3CCCCC3)c21`, the melting point was in the range of 140 to 141 °C.

The compound `O=c1oc2c(c(O)c1C(c1ccccc1)C1CC1)CCC2` (centres undefined) gave a melting point of 183 to 185 °C.

For `CCC(C)Sc1cc(C(=O)O)cc(N)c1Oc1ccccc1` (centres undefined), the melting point fell in the range of 157 to 159 °C.

Compound `CC(C)(C)C=NNC(=O)OCc1ccccc1` registered a melting point of 74 to 74.5 °C.

On to `CCCNCCC1Cc2ccc(C3=NNC(=O)CC3)cc2C1` (centres undefined), for which the melting point fell in the range of 123 to 124 °C.

The compound `CCCCOCCOc1ccc(-c2ccc3c(c2)C=C(C(=O)Nc2ccc(N(C)Cc4nncn4CCC)cc2)CCN3CC(C)C)cc1` came in with a melting point of 134 to 136 °C.

As for `c1ccc2c(c1)C[C@H]1Nc3ccccc3[C@@H]21` (relative stereo), the melting point fell in the range of 85 to 86 °C.

As for `CCCCCCNCCC(=O)O`, the melting point fell in the range of 95 to 97 °C.

With `Clc1ccccc1C=Nc1c2c(nc3ccccc13)CCCC2`, the melting point lay within 165 to 166 °C.

For the compound `COc1ccc(NN=C(Sc2cccc(OC)c2)C(C)=O)cc1`, the melting point lay in the range of 97 to 99 °C.

In turn, `O=C(O)c1ccsc1COc1ccc(CCCCO)cc1` gave a melting point of 140 to 141 °C.

The compound `COc1ccc(S(=O)(=O)Nc2ncnc(Cl)c2Cc2ccccc2OC)cc1` had a melting point of 149 to 151 °C.

Consider `CN1CCC(=O)C(C(c2ccccc2)c2ccccc2)C1` (centres undefined), for which the melting point lay in the range of 127 to 128 °C.

`CN(CC1CC=CCC1)c1ncnc2c1ncn2C1OC(CO)C(O)C1O` (centres undefined) displayed a melting point of 154 to 156 °C.

On to `CN1CCN(C2=Nc3cc(Cl)ccc3Nc3ccsc32)CC1`, for which the melting point lay within 225 to 226 °C.

`Clc1ccc2c3c(cnc2c1)OCCN3` had a melting point of 219 to 220 °C.

Compound `COc1ccc(COC(=O)CCc2nc(-c3ccc(Cl)cc3)co2)cc1` registered a melting point of 69 to 70 °C.

The compound `O=C(CCCCCBr)NC(C(=O)c1ccc(Cl)cc1)c1ccc(Cl)cc1` (centres undefined) registered a melting point of 105 °C.

Compound `Oc1cnccc1CCCOc1cccnc1Oc1cc(Cl)cc(Cl)c1` showed a melting point of 99 to 101 °C.

The compound `OC[C@H]1OC[C@@H](n2c(NC3CC3)nc3cc(Cl)c(Cl)cc32)C[C@@H]1O` returned a melting point of 98 to 99 °C.

As for `Cc1cccc(NC(=O)c2nc(-c3ccccc3)c3ccccc3c2O)n1`, the melting point lay within 261 to 263 °C.

`Cc1ccc(N2C(=O)C(O)=C(C(=O)c3ccc(C(C)C)cc3)C2c2ccc(Cn3cncn3)cc2)nn1` (centres undefined) gave a melting point of 223 °C.

Compound `Nc1sc2c(c1C(=O)c1ccc(Cl)cc1)CCC(Cc1ccccc1)C2` (centres undefined) came in with a melting point of 60 to 62 °C.

In turn, `CCCCCCCNC(=O)Nc1ccccc1C(=O)NCC1c2ccccc2COc2ccc(Br)cc21` (centres undefined) yielded a melting point of 71 to 76 °C.

Take `CN1C(=O)SC(C)(C)[C@@H]1[C@@H](CS(=O)(=O)c1ccc(Oc2ccc(OC(F)(F)F)cc2)cc1)N(O)C=O`: the melting point was in the range of 84 to 86 °C.

Regarding `CC(C)(C)OC(=O)NCCON=C(C(=O)O)c1cccs1`, the melting point lay in the range of 113 to 114 °C.

As to `O=[N+]([O-])c1ccc(Cl)nc1N1CCNCC1`, the melting point is 50 to 53 °C.

For `COc1cc([N+](=O)[O-])c2nccc(C)c2c1Oc1cccc(C(F)(F)F)c1`, the melting point was in the range of 206 to 208 °C.

Compound `CC(=O)NNc1ccc([N+](=O)[O-])cc1` came in with a melting point of 207 to 209 °C.

`O=C(O)CN(C(=O)CCCOc1ccc2c(c1)CN1CC(=O)NC1=N2)C1CCCCC1` returned a melting point of 194 to 195 °C.

With `CN(C)c1ccc(CN2C(=O)C3(COc4cc5c(cc43)OCCO5)c3ccccc32)nc1` (centres undefined), the melting point was in the range of 229 to 236 °C.

As to `NS(=O)(=O)c1ncnc2c1ccn2C1CC(O)C(CO)O1` (centres undefined), the melting point is 175 to 177 °C.

`COc1cc(OC)c(-c2cc3ccccc3n2C(=O)OC(C)(C)C)cc1/C=C/C(=O)c1ccc(C(=O)O)cc1`: the melting point lay within 182 to 183 °C.

Compound `O=C1N(Cc2ncon2)c2ccccc2C12COc1cc3c(cc12)OCO3` (centres undefined) registered a melting point of 160 to 162 °C.

Turning to `NC1=NC(=O)N(C2CCCCC2)CC1Br` (centres undefined), the melting point fell in the range of 152 to 156 °C.

`COc1ccc(C(=O)Cc2ccc(OC)c(F)c2)cc1` gave a melting point of 117 to 118 °C.

Consider `N#CCNC(=O)C(Cl)=C(Cl)Cl`, for which the melting point lay within 58 to 60 °C.

`COCCn1cnc2ccc(-c3sc(N)nc3-c3cccc(C)n3)cc21` had a melting point of 200 to 202 °C.

Take `CC(C)(C)c1ccc(-c2ccc3c(C(N)=O)nn(-c4ccc(S(N)(=O)=O)cc4)c3c2)cc1`: the melting point lay in the range of 262 to 263 °C.

Regarding `Cc1cccc(-c2nc3cccnn3c2-c2ccnc(NC(=O)N3CCCCC3)c2)c1`, the melting point was 173 to 175 °C.

`Cc1c(Nc2c(C#N)cncc2-c2nccs2)ccc2[nH]ccc12` showed a melting point of 245 to 247 °C.
